Data on one molecule can be found in ChEMBL document CHEMBL4265943, “Design and synthesis of potent dual inhibitors of JAK2 and HDAC based on fusing the pharmacophores of XL019 and vorinostat” (Eur J Med Chem, 2018).

Data set [1] has as its system PC-3. The data set can be described thus: Induction of apoptosis in human PC3 cells assessed as live cells at 0.71 uM after 72 hrs by Annexin V-FITC/propidium iodide staining based flow cytometry (reference value: 96.36%). Format: functional. For orientation: Flow cytometry measures light scatter and fluorescence of single cells or particles in a stream.
The subject of data set [2] is PC-3. Description: Induction of apoptosis in human PC3 cells assessed as early apoptotic cells at 0.71 uM after 72 hrs by Annexin V-FITC/propidium iodide staining based flow cytometry (reference value: […]%). Format: functional.
Data set [3] can be described thus: Selectivity index, ratio of CC50 for mouse TAMH cells to IC50 for human MCF7 cells. In kind it is toxicity. The conditions noted are these: TAMH cells (CC50) and MCF7 cells (IC50).
For data set [4], the system named is HCT-116. Description: Induction of apoptosis in human HCT116 cells assessed as late apoptotic cells at 1.14 uM after 72 hrs by Annexin V-FITC/propidium iodide staining based flow cytometry (reference value: 1.45%). Format: functional.
Data set [5] concerns MDA-MB-231. Description: Induction of apoptosis in human MDA-MB-231 cells assessed as early apoptotic cells at 0.9 uM after 72 hrs by Annexin V-FITC/propidium iodide staining based flow cytometry (reference value: 1.45%). In kind it is functional.
A short description of data set [6]: Selectivity index, ratio of CC50 for human AC10 cells to IC50 for human HCT116 cells. Format: toxicity. The following applies: AC10 cells (CC50) and HCT116 cells (IC50).
In data set [7] the test system is HCT-116. The data set can be described thus: Induction of apoptosis in human HCT116 cells assessed as early apoptotic cells at 1.14 uM after 72 hrs by Annexin V-FITC/propidium iodide staining based flow cytometry (reference value: 1.31%). Format: functional.
For data set [8], the system named is MCF7. The data set can be described thus: Antiproliferative activity against human MCF7 cells after 72 hrs by MTT assay. In kind it is functional, cell-based. The conditions noted are these: MCF7, 72 h. (In general: Formazan colour is commonly taken as a measure of viable cells.)
A short description of data set [9]: Antiproliferative activity against human AC10 cells after 72 hrs by MTT assay. In kind it is cell-based.
Data set [10] is described as follows: Selectivity index, ratio of CC50 for mouse TAMH cells to IC50 for human MDA-MB-231 cells. Format: toxicity. The following applies: TAMH cells (CC50) and MDA-MB-231 cells (IC50).
The nature of data set [11]: Antiproliferative activity against mouse TAMH cells after 72 hrs by MTT assay. In kind it is cell-based.
In a further data set the target is Histone deacetylase 1 (Homo sapiens, UniProt Q13547). Description: Inhibition of HDAC1 (unknown origin) using Arg-His-Lys-Lys(Ac) as substrate preincubated with enzyme followed by substrate addition for 2 hrs and measured for 1.5 hrs at 15 mins time interval by fluorescence assay.
The target of data set [12] is T1, Protein deacetylase HDAC6 (Homo sapiens, UniProt Q9UBN7).
T1 sequence (Q9UBN7 whole entry): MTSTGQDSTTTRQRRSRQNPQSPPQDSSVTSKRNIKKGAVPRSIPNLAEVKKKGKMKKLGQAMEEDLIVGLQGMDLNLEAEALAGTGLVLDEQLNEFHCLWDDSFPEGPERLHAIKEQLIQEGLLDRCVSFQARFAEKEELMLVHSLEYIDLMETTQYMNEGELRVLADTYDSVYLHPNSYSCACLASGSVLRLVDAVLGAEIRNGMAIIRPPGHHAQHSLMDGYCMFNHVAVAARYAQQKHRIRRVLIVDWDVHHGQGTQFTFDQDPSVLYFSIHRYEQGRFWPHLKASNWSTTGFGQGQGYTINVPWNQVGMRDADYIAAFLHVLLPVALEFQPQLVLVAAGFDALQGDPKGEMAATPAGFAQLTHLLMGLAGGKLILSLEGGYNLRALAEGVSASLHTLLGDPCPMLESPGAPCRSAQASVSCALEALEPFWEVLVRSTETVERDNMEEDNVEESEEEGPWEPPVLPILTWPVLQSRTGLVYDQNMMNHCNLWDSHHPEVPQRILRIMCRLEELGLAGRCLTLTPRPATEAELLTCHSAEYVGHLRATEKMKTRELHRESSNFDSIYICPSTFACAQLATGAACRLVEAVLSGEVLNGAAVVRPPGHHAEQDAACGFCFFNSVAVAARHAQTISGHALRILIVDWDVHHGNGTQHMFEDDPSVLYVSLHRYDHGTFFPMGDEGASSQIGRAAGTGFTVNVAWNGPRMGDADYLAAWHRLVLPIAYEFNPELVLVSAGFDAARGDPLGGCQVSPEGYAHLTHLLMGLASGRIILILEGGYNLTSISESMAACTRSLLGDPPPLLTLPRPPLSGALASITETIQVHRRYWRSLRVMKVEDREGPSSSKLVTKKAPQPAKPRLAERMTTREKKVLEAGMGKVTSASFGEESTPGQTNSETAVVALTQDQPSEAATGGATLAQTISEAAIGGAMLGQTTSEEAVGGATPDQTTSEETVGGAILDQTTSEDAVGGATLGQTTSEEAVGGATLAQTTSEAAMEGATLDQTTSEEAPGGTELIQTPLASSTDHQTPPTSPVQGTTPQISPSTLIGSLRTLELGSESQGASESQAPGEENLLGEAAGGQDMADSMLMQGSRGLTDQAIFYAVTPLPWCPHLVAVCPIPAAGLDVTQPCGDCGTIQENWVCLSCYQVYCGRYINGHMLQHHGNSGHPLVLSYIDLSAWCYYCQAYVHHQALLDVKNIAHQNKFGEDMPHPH
The data set can be described thus: Inhibition of HDAC6 (unknown origin) using Arg-His-Lys-Lys(Ac) as substrate preincubated with enzyme followed by substrate addition for 2 hrs and measured for 1.5 hrs at 15 mins time interval by fluorescence assay.

The species entered for data set [13] is Homo sapiens. The data set can be described thus: Selectivity ratio of IC50 for human TYK2 to IC50 for human JAK2.
Data set [14] is described as follows: Selectivity index, ratio of CC50 for human AC10 cells to IC50 for human MDA-MB-231 cells. In kind it is toxicity. The following applies: AC10 cells (CC50) and MDA-MB-231 cells (IC50).
Data set [15] relates to PC-3. Description: Antiproliferative activity against human PC3 cells after 72 hrs by MTT assay. Format: functional, cell-based. The following applies: PC-3, 72 h.
Data set [16] relates to MCF7. Description: Induction of apoptosis in human MCF7 cells assessed as necrotic cells at 0.86 uM after 72 hrs by Annexin V-FITC/propidium iodide staining based flow cytometry (reference value: 2.17%). In kind it is functional.
The species named for data set [17] is Homo sapiens. The data set can be described thus: Selectivity ratio of IC50 for human JAK3 to IC50 for human JAK2.
The species named for data set [18] is Homo sapiens. Description: Selectivity ratio of IC50 for human JAK1 to IC50 for human JAK2.
The subject of data set [19] is HCT-116. The data set can be described thus: Antiproliferative activity against human HCT116 cells after 72 hrs by MTT assay. In kind it is functional, cell-based. The conditions noted are these: HCT-116, 72 h.
The nature of data set [20]: Selectivity index, ratio of CC50 for human AC10 cells to IC50 for human PC3 cells. Format: toxicity. The conditions noted are these: AC10 cells (CC50) and PC3 cells (IC50).
The test system of data set [21] is MDA-MB-231. Description: Induction of apoptosis in human MDA-MB-231 cells assessed as late apoptotic cells at 0.9 uM after 72 hrs by Annexin V-FITC/propidium iodide staining based flow cytometry (reference value: 2.12%). In kind it is functional.
Data set [22] is described as follows: Selectivity index, ratio of CC50 for human AC10 cells to IC50 for human MCF7 cells. Format: toxicity. The following applies: AC10 cells (CC50) and MCF7 cells (IC50).
Data set [23] can be described thus: Selectivity index, ratio of CC50 for mouse TAMH cells to IC50 for human HCT116 cells. In kind it is toxicity. The conditions noted are these: TAMH cells (CC50) and HCT116 cells (IC50).

Usually IC50 stands for the midpoint of a concentration-inhibition curve. The term CC50 denotes the concentration that lowers cell viability or growth by half. A high value points to lower toxicity to the cells.

Chain of Histone deacetylase 1 (Q13547 whole entry): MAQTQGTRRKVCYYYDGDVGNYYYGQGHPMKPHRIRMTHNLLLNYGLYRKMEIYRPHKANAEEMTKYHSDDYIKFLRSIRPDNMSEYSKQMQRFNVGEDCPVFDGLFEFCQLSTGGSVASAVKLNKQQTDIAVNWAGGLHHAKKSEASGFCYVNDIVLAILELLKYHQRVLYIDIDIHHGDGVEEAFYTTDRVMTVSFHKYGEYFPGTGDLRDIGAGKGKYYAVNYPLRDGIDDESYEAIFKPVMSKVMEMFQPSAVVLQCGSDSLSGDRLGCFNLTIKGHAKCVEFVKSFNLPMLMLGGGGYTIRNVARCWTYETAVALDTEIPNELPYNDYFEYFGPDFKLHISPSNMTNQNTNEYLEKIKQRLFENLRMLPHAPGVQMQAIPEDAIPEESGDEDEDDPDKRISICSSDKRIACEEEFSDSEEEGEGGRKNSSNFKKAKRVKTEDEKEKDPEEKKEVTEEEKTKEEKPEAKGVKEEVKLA

As to `O=C(CCCCCCC(=O)Nc1ccc(-c2ccnc(Nc3ccc(N4CCOCC4)cc3)n2)cc1)NO`, the Activity in the data set with PC-3 [1] was determined as 39.88%; in the data set on PC-3 [2], 45.69%; with HCT-116 [4], 12.12%; in the data set on MDA-MB-231 [5] it was 43.86%; with HCT-116 [7] it was 31.19%; in the data set with MCF7 [16] it was 7.97%. Moreover, in the data set with MDA-MB-231 [21], the Activity was 39.98%. The selectivity ratio was 9.13 in [3]; 3.79 in [6]; 6.45 in data set [10]; 4.02 in data set [14]; 6.22 in data set [20]; 5.69 in data set [22]. In addition, the selectivity ratio in [23] came to 6.09. The IC50 in the data set on MCF7 [8] is 700 nM; against Histone deacetylase 1, 56 nM; in data set [12], 1.2 nM; with PC-3 [15], 640 nM; in the data set on HCT-116 [19], 1050 nM. In addition, the CC50 at 72 h in data set [9] was determined as 3980 nM; in data set [11], 6390 nM. Also, the Ratio IC50 in the data set listed under Homo sapiens [13] was determined as 25.6; in the data set filed under Homo sapiens [17], 25.8; in the data set filed under Homo sapiens [18], 16.8.
